Assay results: patent US9415047B2, “Use of benzo five-membered nitrogen heterocyclic piperazine or piperidine derivatives” (Liaoning Emmy Biological Pharmaceutical Co., Ltd., priority 2012, dated 2016)

Legend:
[1] = tested on: AD constricted rabbit aorta; assay: Relaxing effects on vascular smooth muscle constricted by adrenaline hydrochloride (AD) in vitro; conditions: Oryctolagus cuniculus; relaxation of rabbit aorta constricted by adrenaline (10^−5 mol/L); mean±SEM, n=5
Procedure: Adrenaline hydrochloride (AD) (10^−5 mol/L) was added into a bath tube to induce constriction, when maximal constriction was achieved, the sample was completely flushed, K-H solution was changed for every 20 min. Contents in the tube was balanced for 60 min, when baseline recovered to be stable, the […] was added at the same concentration to induce constriction. When the later maximal constriction response was basically consistent with the former one, the prepared compound solutions were subsequently added, including compound II-1 to II-60 solutions (1×10^−8-1×10^−3 mol/L), compound II-84 to II-123 solutions (1×10^−10-1×10^−2 mol/L) and compound II-124 to II-157 solutions (1×10^−10˜1×10^−3 mol/L), to record the waveforms. Relaxing percentage of the compound was used as Y axis, maximal relaxation response was 100%, negative logarithm of different concentration was used as X axis, to draw dose effect curve (expressed in mean±SEM ( ? ), n=5). Compounds II-2 and II-3 had the most obvious relaxing effects (FIG. 1 and FIG. 8).

[2] = tested on: high kalium concentration constricted rabbit aorta; assay: Relaxing effects on vascular smooth muscle constricted by high kalium concentration in vitro; conditions: Oryctolagus cuniculus, relaxation of rabbit aorta constricted by high kalium solution (K+ 60 mmol/L); mean±SEM, n=5
Procedure: Adrenaline hydrochloride (AD) (10^−5 mol/L) was added into a bath tube to induce constriction, when maximal constriction was achieved, the sample was completely flushed, K-H solution was changed for every 20 min. Contents in the tube was balanced for 60 min, when baseline recovered to be stable, K-H solution in the bath tube was replaced with high kalium concentration solution to induce constriction. When the later maximal constriction response was basically consistent with the former one, the prepared compound solutions were subsequently added, including compound II-1 to II-60 solutions (1×10^−8-1×10^−3 mol/L), compound II-84 to II-123 solutions (1×10^−10-1×10^−2 mol/L) and compound II-124 to II-157 solutions (1×10^−10-1×10^−3 mol/L), to record the waveforms. Relaxing percentage of the compound was used as Y axis, maximal relaxation response was 100%, negative logarithm of different concentration was used as X axis, to draw dose effect curve (expressed in mean±SEM ( ? ), n=5). Compounds II-2 and II-3 had the most obvious relaxing effects (FIG. 2 and FIG. 9).

| SMILES | EC50 [1] [µM] | EC50 [2] [µM] |
| --- | --- | --- |
| Clc1cccc(N2CCN(CCCCn3cnc4ccccc43)CC2)c1 [II-1, 1-(4-(4-(3-chlorophenyl)piperazine-1-yl)butyl)-1H-benzimidazole] | 9.33 | 8.91 |
| Clc1cccc(N2CCN(CCCCn3cnc4ccccc43)CC2)c1Cl [II-3, 1-(4-(4-(2,3-dichlorophenyl)piperazine-1-yl)butyl)-1H-benzimidazole] | 0.977 | 3.24 |
| COc1ccccc1N1CCN(CCCCn2cnc3ccccc32)CC1 [II-4, 1-(4-(4-(2-methoxyphenyl)piperazine-1-yl)butyl)-1H-benzimidazole] | 11 | 16.2 |
| Cc1nc2ccccc2n1CCCCN1CCN(c2cccc(C(F)(F)F)c2)CC1 [II-5, 2-methyl-1-(4-(4-(3-trifluoromethylphenyl)piperazine-1-yl)butyl)-1H-benzimidazole] | 16.6 | 29.5 |
| Fc1ccc2ncn(CCCCN3CCN(c4cccc(C(F)(F)F)c4)CC3)c2c1 [II-6, 6-fluoro-1-(4-(4-(3-trifluoromethylphenyl)piperazine-1-yl)butyl)-1H-benzimidazole] | 23.4 | 38.9 |
| c1ccc(N2CCN(CCCn3cnc4ccccc43)CC2)cc1 [II-7, 1-(3-(4-phenylpiperazine-1-yl)propyl)-1H-benzimidazole] | 51.3 | 162 |
| Fc1cccc(N2CCN(CCCn3cnc4ccccc43)CC2)c1 [II-8, 1-(3-(4-(3-fluorophenyl)piperazine-1-yl)propyl)-1H-benzimidazole] | 19.5 | 38.9 |
| Cc1nc2ccccc2n1CCCN1CCN(c2cccc(F)c2)CC1 [II-9, 2-methyl-1-(3-(4-(3-fluorophenyl)piperazine-1-yl)propyl)-1H-benzimidazole] | 42.7 | 52.5 |
| N#Cc1cccc(N2CCN(CCCCn3cnc4ccccc43)CC2)c1 [II-10, 1-(4-(4-(3-cyanophenyl)piperazine-1-yl)butyl)-1H-benzimidazole] | 55 | 110 |
| Cc1ccc(N2CCN(CCCCn3cnc4ccccc43)CC2)cc1 [II-11, 1-(4-(4-(4-methylphenyl)piperazine-1-yl)butyl)-1H-benzimidazole] | 89.1 | 141 |
| c1coc(N2CCN(CCCCn3cnc4ccccc43)CC2)c1 [II-12, 1-(4-(4-(2-furyl)piperazine-1-yl)butyl)-1H-benzimidazole] | 44.7 | 70.8 |
| c1ccc2c(c1)ncn2CCCCN1CCN(c2ccncc2)CC1 [II-13, 1-(4-(4-(4-pyridyl)piperazine-1-yl)butyl)-1H-benzimidazole] | 38.9 | 30.2 |
| c1cnc(N2CCN(CCCCn3cnc4ccccc43)CC2)nc1 [II-14, 1-(4-(4-(2-pyrimidinyl)piperazine-1-yl)butyl)-1H-benzimidazole] | 60.3 | 89.1 |
| c1ccc2c(c1)ncn2CCCCN1CCN(C2CCCCC2)CC1 [II-15, 1-(4-(4-(1-cyclohexyl)piperazine-1-yl)butyl)-1H-benzimidazole] | 33.9 | 30.2 |
| c1ccc2c(N3CCN(CCCCn4cnc5ccccc54)CC3)cccc2c1 [II-16, 1-(4-(4-(1-naphthyl)piperazine-1-yl)butyl)-1H-benzimidazole] | 51.3 | 64.6 |
| c1ccc2nc(N3CCN(CCCCn4cnc5ccccc54)CC3)cnc2c1 [II-17, 1-(4-(4-(2-quinoxalinyl)piperazine-1-yl)butyl)-1H-benzimidazole] | 29.5 | 49 |
| Fc1ccc2c(N3CCN(CCCCn4cnc5ccccc54)CC3)noc2c1 [II-18, 1-(4-(4-(3-(6-fluorobenzisoxazolyl))piperazine-1-yl)butyl)-1H-benzimidazole] | 13.8 | 18.2 |
| Fc1ccc2c(N3CCN(CCCCn4cnc5ccccc54)CC3)nsc2c1 [II-19, 1-(4-(4-(3-(6-fluorobenzisothiazolyl))piperazine-1-yl)butyl)-1H-benzimidazole] | 66.1 | 87.1 |
| Fc1ccc2c(N3CCN(CCCCn4cnc5ccccc54)CC3)coc2c1 [II-21, 1-(4-(4-(3-(6-fluorobenzofuranyl))piperazine-1-yl)butyl)-1H-benzimidazole] | 89.1 | 178 |

| SMILES | EC50 [1] [µM] | EC50 [2] [µM] |
| --- | --- | --- |
| Fc1ccc2c(N3CCN(CCCOn4cnc5ccccc54)CC3)noc2c1 [II-22, 1-(3-(4-(3-(6-fluorobenzisoxazolyl))piperazine-1-yl)propoxyl)-1H-benzimidazole] | 28.2 | 22.9 |
| FC(F)(F)c1cccc(N2CCN(CCCOn3cnc4ccccc43)CC2)c1 [II-23, 1-(4-(4-(3-trifluoromethylphenyl)piperazine-1-yl)propoxyl)-1H-benzimidazole] | 19.1 | 38 |
| Clc1cccc(N2CCN(CCCOn3cnc4ccccc43)CC2)c1 [II-24, 1-(4-(4-(3-chlorphenyl)piperazine-1-yl)propoxyl)-1H-benzimidazole] | 30.2 | 30.2 |
| FC(F)(F)c1cccc(N2CCN(CCCCn3cnc4ccc(Cl)cc43)CC2)c1 [II-25, 6-chloro-1-(4-(4-(3-trifluoromethylphenyl)piperazine-1-yl)butyl)-1H-benzimidazole] | 16.2 | 29.5 |
| N#Cc1ccc2ncn(CCCCN3CCN(c4cccc(C(F)(F)F)c4)CC3)c2c1 [II-26, 6-cyano-1-(4-(4-(3-trifluoromethylphenyl)piperazine-1-yl)butyl)-1H-benzimidazole] | 64.6 | 102 |
| COC(=O)c1ccc2ncn(CCCCN3CCN(c4cccc(C(F)(F)F)c4)CC3)c2c1 [II-27, 6-methoxycarbonyl-1-(4-(4-(3-trifluoromethylphenyl)piperazine-1-yl)butyl)-1H-benzimidazole] | 49 | 87.1 |
| FC(F)(F)c1cccc(N2CCN(CCCCCn3c(Cl)nc4ccccc43)CC2)c1 [II-28, 2-chloro-1-(5-(4-(3-trifluoromethylphenyl)piperazine-1-yl)pentyl)-1H-benzimidazole] | 102 | 141 |
| Clc1cccc(N2CCN(CCCCn3nnc4ccccc43)CC2)c1 [II-29, 1-(4-(4-(3-chlorophenyl)piperazine-1-yl)butyl)-1H-benzotriazole] | 0.977 | 2.29 |
| Fc1cccc(N2CCN(CCCCn3nnc4ccccc43)CC2)c1 [II-30, 1-(4-(4-(3-fluorophenyl)piperazine-1-yl)butyl)-1H-benzotriazole] | 3.02 | 7.41 |
| Fc1ccc2nnn(CCCCN3CCN(c4cccc(C(F)(F)F)c4)CC3)c2c1 [II-32, 6-fluoro-1-(4-(4-(3-trifluoromethylphenyl)piperazine-1-yl)butyl)-1H-benzotriazole] | 3.89 | 24.5 |
| Cc1cc2nnn(CCCCN3CCN(c4cccc(C(F)(F)F)c4)CC3)c2cc1C [II-33, 5,6-dimethyl-1-(4-(4-(3-trifluoromethylphenyl)piperazine-1-yl)butyl)-1H-benzotriazole] | 40.7 | 115 |
| c1ccc2c(c1)nnn2CCCCN1CCN(c2nsc3ccccc23)CC1 [II-34, 3-(4-(4-(1H-benzotriazole-1-yl)butyl)piperazine-1-yl)benzisothiazole] | 0.00851 | 17 |
| c1ccc2c(c1)nnn2CCCCN1CCN(c2noc3ccccc23)CC1 [II-35, 3-(4-(4-(1H-benzotriazole-1-yl)butyl)piperazine-1-yl)benzisoxazole] | 12.9 | 32.4 |
| Fc1ccc2c(N3CCN(CCCCn4nnc5ccccc54)CC3)noc2c1 [II-36, 6-fluoro-3-(4-(4-(1H-benzotriazole-1-yl)butyl)piperazine-1-yl)benzisoxazole] | 4.9 | 4.9 |
| Fc1ccc2c(N3CCN(CCCn4nnc5ccccc54)CC3)noc2c1 [II-37, 6-fluoro-3-(4-(3-(1H-benzotriazole-1-yl)propyl)piperazine-1-yl)benzisoxazole] | 2.75 | 3.72 |
| COc1cccc(N2CCN(CCCCn3nnc4ccccc43)CC2)c1 [II-40, 1-(4-(4-(3-methoxyphenyl)piperazine-1-yl)butyl)-1H-benzotriazole] | 4.47 | 5.13 |
| N#Cc1cccc(N2CCN(CCCCn3nnc4ccccc43)CC2)c1 [II-41, 1-(4-(4-(3-cyanophenyl)piperazine-1-yl)butyl)-1H-benzotriazole] | 30.9 | 24.5 |
| FC(F)(F)c1cccc(N2CCN(CCCCCn3nnc4ccccc43)CC2)c1 [II-42, 1-(5-(4-(3-trifluoromethylphenyl)piperazine-1-yl)pentyl)-1H-benzotriazole] | 40.7 | 117 |
